Data as given in PMC3419577 (The Journal of neuroscience : the official journal of the …, 2012).

System: cells in posterior cortex (V1), fresh frozen sections
Experiment: Binding of AP-fusion proteins on fresh-frozen brain sections
Set-up: species or system mouse
Conditions: AP staining, competitor with AP-NtHD

Full-length Otx2: non-tagged, full-length Otx2 used as competitor
competition of AP-NtHD binding: disrupts AP-NtHD cortical binding
